According to patent US9334273B1, “Efficient and stereoselective synthesis of 2′-fluoro-6′-methylene-carbocyclic adenosine (FMCA)” (UNIVERSITY OF GEORGIA RESEARCH FOUNDATION, INC., priority 2014, dated 2016):

Key:
[1] = test system: entecavir resistant triple mutant (L180M+M204V+S202G) HBV; conditions: cited from earlier work; for EC50: in vitro, entecavir resistant triple mutant (L180M+M204V+S202G)
[2] = test system: HBV wild type as well as resistant mutants; conditions: both wild type as well as resistant mutants; cited from earlier work

Row | SMILES | fold less effective against the mutant in comparison to wild type ([1]; triple mutant (L180M+M204V+S202G) vs wild type) [fold] | EC50 [1] [µM] | anti-HBV efficacy [2] | melting point
1 | C=C1[C@H](CO)[C@@H](O)C[C@@H]1n1cnc2c(=O)[nH]c(N)nc21 [entecavir, reference compound] | 150 | – | – | –
2 | C=C1C(COP(=O)(N[C@@H](C)C(=O)OC)Oc2ccccc2)C(O)C(F)C1n1cnc2c(N)ncnc21 (stereo partly drawn) [FMCAP] | – | 0.054 | demonstrated the anti-HBV efficacy | –
3 | C=C1[C@@H](n2cnc3c(N)ncnc32)C(F)C(O)[C@H]1CO (single isomer, unassigned; (+)) [FMCA, (+)-9-[(1′R, 2′R, 3′R, 4′R)-2′-Fluoro-3′-hydroxy-4′-(hydroxymethyl)-5′-methylenecyclo-pentan-1′-yl]-adenine] | – | 0.67 | demonstrated the anti-HBV efficacy | 215 to 218 °C (dec.)
